These results are taken from patent US10952940B2, “Reagents and methods for mineralization of tooth enamel” (UNIVERSITY OF WASHINGTON, priority 2016, dated 2021).

“Also recorded” adds a separate entry of the source.

Experiment [1] is described as follows: Solution mineralization approach on tetracycline-stained teeth, Mean Pixel Intensity. Further details: species or system human. To be noted: repeated rounds of remineralization. From the text:
Human teeth, donated by the University of Washington School of Dentistry (Seattle, Wash., USA), were selected for their clean, smooth surfaces. The teeth were sterilized in bleach, cut on a diamond blade to remove the root, and halved. A thin layer of the enamel surface was then cut on one of the halves parallel to the previous cut, such that the dentin layer could be seen without completely removing the enamel on the tooth. This allowed imaging of the enamel surfaces after the mineralization experiment without the problem of surface reflection encountered in previous experiments, in addition to a more parallel surface from which to compare the brightness or whiteness results. The cut enamel side of the tooth sample was then sonicated in DI water and polished on diamond slurry smooth out the surface for imaging. The sample was then cut into quarters, with the lower half selected for a tetracycline experiment because of the even distribution of dentin coloring in the lower quarters of the tooth sample. The samples were then stained in 10 mg/mL tetracycline solution for five days.
During mineralization, using a 96-well plate, one of the stained halves was stored in […] Tris (24 mM) as a negative control, and the experimental sample was incubated in 150 μL shADP5 (0.8 mM) at 37° C. for 10 minutes. […]

Experiment [2] in a line: In vitro re-mineralization of tea-stained human tooth using the peptide solution, optical images and line profile analysis. The procedure:
A caries-free human tooth was sterilized in 1% bleach solution for 24 hours then removed and vigorously rinsed with deionized water. The root site was removed and the crown sectioned vertically using a diamond blade. Pictures were taken with a camera attached to an optical microscope.
The exposed dentine sites were etched with 35% phosphoric acid (Ultraetch™) for 60 seconds (to facilitate the stain intake). The etching gel was removed by rinsing the sample with distilled water for 3 minutes. The staining solution was prepared by boiling 2 g of tea in 100 ml of deionized water for 5 minutes, which was then cooled down to room temperature and filtered. The tooth was soaked in the staining solution and incubated at 37° C. at 150 rpm for 24 hours. The tooth was then removed from the staining solution and sonicated for 30 seconds in deionized water (sonic bath) to remove the excess amount of tea particles attached to tooth extrinsically. The sectioned tooth was cut vertically in half again to form two quarter sections of the tooth. FIGS. 2(a) to 2(g) show various sections of the tooth after the staining. […] Figures (b), (c) and (d) show different views of the left quarter of the tooth that was sectioned from the tooth. […]

Experiment [3] in a line: Structural characterization of remineralized layer by TEM. The arrangement: species or system human. Particulars: TEM of fragments shaved off the surface; listed as group 6. The procedure:
After remineralization steps were completed, TEM samples were collected by carefully shaving off the top most surface of the remineralized layer from the artificially created white spot lesion using a clean razor blade. The shaved particles were suspended in 100% ethanol, and the suspension was drop-casted onto a carbon coated TEM grid, which was then vacuum dried before TEM characterization. TEM bright field imaging (BF) imaging and selected areas diffraction were carried out using an FEI Tecnai (FEI, Hillboro, Oreg., USA) operating at 200 keV.
Structural and phase characterization of the samples from all groups were undertaken by transmission electron microscopy imaging and diffraction analysis. This is because x-ray diffraction characterization requires large enough volume with 10s of lam mass thickness and larger spatial sampling, 100s of μms or larger areas. Since the mineralized layer is thin, a few μms in all other group samples to 10 μm or so in group 6 samples using the peptide, TEM has been used to provide the most critical data, diffraction and phase identification. The TEM samples were prepared by gently shaving fragments off the surface of tooth specimens onto carbon-coated TEM grid to prepare and ensure electron transparent sections. All of the TEM data is included in FIG. 13 below for completeness (while only 1st, 4th and 6th columns of data were presented in FIG. 11).

The nature of experiment [4]: Solution mineralization approach, color measurements with Chroma Meter. The arrangement: species or system human. Particulars: peptide 10 min, calcium/phosphate ions 2 hours, 37° C.; 25 rounds. The text has this:
The root site of an extracted human tooth was removed and the crown portion of the tooth was sectioned vertically into half. A thin layer of enamel was removed from one half of the sectioned tooth such that the dentin layer is exposed without completely removing the enamel on the tooth. This allowed imaging of the enamel surfaces after the mineralization experiment without the problem of surface reflection, and provides a more parallel surface from which to compare the whiteness results. The sectioned tooth was fixed onto a glass slide with epoxy. Initial color measurements of each of the four sides of the sectioned tooth were obtained using a Minolta Chroma Meter CR-200 (Konica Minolta, Tokyo, Japan), according to manufacturer instructions, using a white background and a black background. The sectioned tooth was incubated in a mineralization polypeptide solution for 10 minutes at 37° C. and then in a solution with calcium ions and phosphate ions for 2 hours at 37° C. Color measurements of each of the four sides of the sample were taken as described initially. The sectioned was rinsed with deionized water and the remineralization process (incubation in polypeptide solution, incubation in solution of ion sources, and rinsing with deionized water) was repeated for a total of 25 rounds. The mineralization polypeptide was SYENSHSQAINVDRT (shADP5; SEQ ID NO:16).

“SYENSHSQAINVDRT [shADP5, 15-amino acid long amelogenin-derived peptide, shortened human ADP5]”: the “whiteness of the stained tooth” value in experiment [1] was “improves with repeated rounds of remineralization”. In addition, the “Mean Pixel Intensity (MPI) compared with original and stained tooth” value in experiment [2] (ImageJ line profile, after staining and remineralization) is “higher MPI than the original tooth and the tooth after staining”. In addition, the “tooth color compared with control” value in experiment [2] (tea-stained human tooth quarter, peptide 10 min 37° C., then CaCl2/KH2PO4 16 hours) was “lighter in color than the left quarter (control)”. The “structure of mineral found by TEM imaging and diffraction” value in experiment [3] is “large particles (in the shown projection) of HAp; also recorded: HAp crystallites with aligned organization”. Further, the “whiteness of the tooth enamel” value in experiment [4] is listed as “improved with each round of remineralization”.
